The results in this text go back to PubChem BioAssay AID328 (DTP/NCI, 2004).

The subject of this assay is BDF1 mice, P388 leukemia ip, median survival T/C. The experiment in a line: NCI In Vivo Anticancer Drug Screen. Data for tumor model P388 Leukemia (intraperitoneal) in B6D2F1 (BDF1) mice. The following applies: endpoint: median survival time, higher = longer survival. Summed up:
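Reported as T/C, where T is the survival measurement in dosed animals and C the same measurement in vehicle controls.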

Setting [1] is: dose: 50.0 mg/kg/injection, schedule: Q01DX009 (ip), vehicle: Klucel (hydroxypropylcellulose) (HPC).
Setting [2] is: dose: 100.0 mg/kg/injection, schedule: Q01DX009 (ip), vehicle: Klucel (hydroxypropylcellulose) (HPC).
Where [3] appears, read: dose: 100.0 mg/kg/injection, schedule: Q04DX003 (ip), vehicle: Klucel (hydroxypropylcellulose) (HPC).
[4] abbreviates: dose: 200.0 mg/kg/injection, schedule: Q04DX003 (ip), vehicle: Klucel (hydroxypropylcellulose) (HPC).

Values joined by “and” are separate entries in the source; they are usually repeats but may differ in a detail not shown here. Identical values can stand only once. Inconclusive results and toxic doses are left out.

For `COCCOC1=C(N2CC2)C(=O)C(OCCOC)=C(N2CC2)C1=O`, the T/C (dose: 0.26 mg/kg/injection, schedule: Q01DX009 (ip), vehicle: saline) is 99 % of control; the T/C (dose: 0.4 mg/kg/injection, schedule: Q01DX009 (ip), vehicle: saline) was 108 % of control; the T/C (dose: 0.88 mg/kg/injection, schedule: Q01DX009 (ip), vehicle: saline) was 163 % of control; the T/C (dose: 0.88 mg/kg/injection, schedule: Q04DX003 (ip), vehicle: saline) is 121 % of control; the T/C (dose: 0.9 mg/kg/injection, schedule: Q01DX009 (ip), vehicle: saline) was 108 % of control; the T/C (dose: 1.0 mg/kg/injection, schedule: Q01DX009 (ip), vehicle: saline) is 171 % of control and 180 % of control. For the same compound, the T/C (dose: 1.32 mg/kg/injection, schedule: Q01DX009 (ip), vehicle: saline) is 209 % of control; the T/C (dose: 1.32 mg/kg/injection, schedule: Q04DX003 (ip), vehicle: saline) is 113 % of control; the T/C (dose: 2.0 mg/kg/injection, schedule: Q01DX009 (ip), vehicle: saline) is 223 % of control and 263 % of control and 220 % of control; the T/C (dose: 3.0 mg/kg/injection, schedule: Q01DX009 (ip), vehicle: saline) was 231 % of control; the T/C (dose: 3.0 mg/kg/injection, schedule: Q04DX003 (ip), vehicle: saline) is 152 % of control; the T/C (dose: 3.3 mg/kg/injection, schedule: Q04DX003 (ip), vehicle: saline) was 186 % of control. Besides, the T/C by setting is: (dose: 4.0 mg/kg/injection, schedule: Q01DX009 (ip), vehicle: saline) 109 % of control and 115 % of control; (dose: 5.0 mg/kg/injection, schedule: Q04DX003 (ip), vehicle: saline) 209 % of control; (dose: 6.25 mg/kg/injection, schedule: Q04DX003 (ip), vehicle: saline) 236 % of control; (dose: 7.5 mg/kg/injection, schedule: Q04DX003 (ip), vehicle: saline) 272 % of control; (dose: 12.5 mg/kg/injection, schedule: Q04DX003 (ip), vehicle: saline) 118 % of control.

As to `C[C@]1(O)CC[C@H]2[C@@H]3CCC4=CC(=O)CCC4=C3C=C[C@@]21C`, the T/C (dose: 12.5 mg/kg/injection, schedule: Q01DX009 (ip), vehicle: Klucel (hydroxypropylcellulose) (HPC)) is 87 % of control; the T/C (dose: 25.0 mg/kg/injection, schedule: Q01DX009 (ip), vehicle: Klucel (hydroxypropylcellulose) (HPC)) was 91 % of control; the T/C under setting [1] is 91 % of control; the T/C under setting [2] is 104 % of control; the T/C under setting [3] is 104 % of control; the T/C (dose: 200.0 mg/kg/injection, schedule: Q01DX009 (ip), vehicle: Klucel (hydroxypropylcellulose) (HPC)) was 109 % of control. Under setting [4], the T/C is 104 % of control.

For `C1CC[N-]CC1.C1CC[N-]CC1.[I][Pt+2][I]`, the T/C under setting [1] was 93 % of control and the T/C under setting [2] is 93 % of control.

For `C=C1C(=O)O[C@@H]2/C=C(/C)[C@@]3(O)C=C[C@](C)(C[C@@H](OC(=O)/C(=C\C)COC(C)=O)[C@@H]12)O3`, the T/C runs as follows: (dose: 0.38 mg/kg/injection, schedule: Q01DX010 (ip), vehicle: carboxymethylcellulose (CMC)) 90 % of control; (dose: 0.75 mg/kg/injection, schedule: Q01DX010 (ip), vehicle: carboxymethylcellulose (CMC)) 95 % of control; (dose: 1.0 mg/kg/injection, schedule: Q01DX009 (ip), vehicle: carboxymethylcellulose (CMC)) 103 % of control; (dose: 1.5 mg/kg/injection, schedule: Q01DX010 (ip), vehicle: carboxymethylcellulose (CMC)) 109 % of control; (dose: 2.5 mg/kg/injection, schedule: Q01DX010 (ip), vehicle: saline) 118 % of control; (dose: 3.0 mg/kg/injection, schedule: Q01DX010 (ip), vehicle: carboxymethylcellulose (CMC)) 104 % of control. The T/C reads like this: (dose: 5.0 mg/kg/injection, schedule: Q01DX010 (ip), vehicle: carboxymethylcellulose (CMC)) 157 % of control; (dose: 5.0 mg/kg/injection, schedule: Q01DX010 (ip), vehicle: saline) 122 % of control; (dose: 6.0 mg/kg/injection, schedule: Q01DX010 (ip), vehicle: carboxymethylcellulose (CMC)) 163 % of control; (dose: 8.0 mg/kg/injection, schedule: Q01DX009 (ip), vehicle: carboxymethylcellulose (CMC)) 117 % of control; (dose: 8.0 mg/kg/injection, schedule: Q01DX010 (ip), vehicle: carboxymethylcellulose (CMC)) 157 % of control; (dose: 12.0 mg/kg/injection, schedule: Q01DX010 (ip), vehicle: carboxymethylcellulose (CMC)) 118 % of control. For the same compound, the T/C by setting is: (dose: 18.0 mg/kg/injection, schedule: Q01DX010 (ip), vehicle: saline) 109 % of control; (dose: 27.0 mg/kg/injection, schedule: Q01DX010 (ip), vehicle: carboxymethylcellulose (CMC)) 105 % of control; (dose: 40.0 mg/kg/injection, schedule: Q01DX010 (ip), vehicle: saline) 100 % of control.

Regarding `O=c1cc(-c2ccccc2)[nH]c(=S)[nH]1`, the T/C was 95 % of control (dose: 100.0 mg/kg/injection, schedule: Q04DX003 (ip), vehicle: saline with Tween-80); 104 % of control (dose: 200.0 mg/kg/injection, schedule: Q04DX003 (ip), vehicle: saline with Tween-80); 100 % of control (dose: 400.0 mg/kg/injection, schedule: Q04DX003 (ip), vehicle: saline with Tween-80).

Regarding `COc1cccc2c1C(=O)c1c(O)c3c(c(O)c1C2=O)C[C@@](O)(C(=O)CO)C[C@@H]3OC1CC(NC(C)=O)C(O)C(C)O1` (some centres undefined), the T/C is 119 % of control (dose: 25.0 mg/kg/injection, schedule: Q04DX009 (ip), vehicle: other); 119 % of control (dose: 100.0 mg/kg/injection, schedule: Q04DX009 (ip), vehicle: other); 119 % of control (dose: 200.0 mg/kg/injection, schedule: Q04DX009 (ip), vehicle: other).

For the compound `O=C(c1ccccc1)C1(Br)CCCCC1`, the T/C is 104 % of control (dose: 75.0 mg/kg/injection, schedule: Q01DX009 (ip), vehicle: Klucel (hydroxypropylcellulose) (HPC)); 100 % of control (dose: 100.0 mg/kg/injection, schedule: Q01DX001 (ip), vehicle: Klucel (hydroxypropylcellulose) (HPC)); 109 % of control under setting [3]; 95 % of control (dose: 150.0 mg/kg/injection, schedule: Q01DX009 (ip), vehicle: Klucel (hydroxypropylcellulose) (HPC)); 104 % of control (dose: 200.0 mg/kg/injection, schedule: Q01DX001 (ip), vehicle: Klucel (hydroxypropylcellulose) (HPC)); 104 % of control under setting [4]. The T/C (dose: 300.0 mg/kg/injection, schedule: Q01DX009 (ip), vehicle: Klucel (hydroxypropylcellulose) (HPC)) is 86 % of control; the T/C (dose: 400.0 mg/kg/injection, schedule: Q01DX001 (ip), vehicle: Klucel (hydroxypropylcellulose) (HPC)) is 104 % of control; the T/C (dose: 400.0 mg/kg/injection, schedule: Q04DX003 (ip), vehicle: Klucel (hydroxypropylcellulose) (HPC)) was 109 % of control.

With `O=C(/C=C/c1ccc(Cl)cc1Cl)c1ccc(Cl)cc1`, the T/C is 104 % of control (dose: 100.0 mg/kg/injection, schedule: Q01DX009 (ip), vehicle: saline with Tween-80); 104 % of control (dose: 200.0 mg/kg/injection, schedule: Q01DX009 (ip), vehicle: saline with Tween-80); 100 % of control (dose: 400.0 mg/kg/injection, schedule: Q01DX009 (ip), vehicle: saline with Tween-80).
